Consider one compound from ChEMBL document CHEMBL4706519, “Evaluation of N-phenyl-2-aminothiazoles for treatment of multi-drug resistant and intracellular Staphylococcus aureus infections” (Eur J Med Chem, 2020).

Values after ≈ are worked out from the molar mass of the structure shown.

The subject of one series is Escherichia coli. Put plainly: Antibacterial activity against wild type Escherichia coli BW25113 assessed as inhibition of bacterial growth measured after 18 to 20 hrs by broth microdilution method. It is filed as functional. The following applies: time 18-20 hrs.
The test system of series [1] is Streptococcus pneumoniae. In words: Ratio of MBC to MIC for cephalosporin-resistant Streptococcus pneumoniae ATCC 51916 assessed as inhibition of bacterial growth measured after 18 to 20 hrs by CLSI protocol based broth microdilution method. It is filed as functional. The settings on record: time 18-20 hrs. A general note: Dilution methods test growth across graded concentrations, often in twofold steps.

A further series has as its system Listeria monocytogenes. Put plainly: Ratio of MBC to MIC for Listeria monocytogenes ATCC 19111 assessed as inhibition of bacterial growth measured after 18 to 20 hrs by CLSI protocol based broth microdilution method. The class given is functional. The settings on record: time 18-20 hrs.
The test system of series [2] is Staphylococcus epidermidis. Put plainly: Ratio of MBC to MIC for methicillin-resistant Staphylococcus epidermidis NRS101 assessed as inhibition of bacterial growth measured after 18 to 20 hrs by CLSI protocol based broth microdilution method. It is filed as functional. The settings on record: time 18-20 hrs.
Another series concerns Enterococcus faecium. In words: Antibacterial activity against vancomycin-resistant Enterococcus faecium ATCC 700221 assessed as inhibition of bacterial growth measured after 18 to 20 hrs by CLSI protocol based broth microdilution method. The class given is functional. The following applies: time 18-20 hrs.
For series [3], the system named is Streptococcus pneumoniae. In words: Antibacterial activity against cephalosporin-resistant Streptococcus pneumoniae ATCC 51916 assessed as inhibition of bacterial growth measured after 18 to 20 hrs by CLSI protocol based broth microdilution method. The class given is functional. The settings on record: time 18-20 hrs.
The nature of series [4]: Selectivity index, ratio of maximum non-toxic concentration for human Caco-2 cells to MIC for methicillin-resistant Staphylococcus aureus USA300 NRS384. It is filed as toxicity.
A short description of the next series: in vitro. The settings on record: human, liver microsomes.
The test system of a further series is Staphylococcus aureus. In words: microbe, parasite or virus in culture. The following applies: USA700 NRS386.
A further series concerns Enterococcus faecalis. In words: microbe, parasite or virus in culture. The following applies: ATCC 51299.

As a reminder, the microsomal CLint is a measure of how fast metabolising enzymes remove a compound, apart from limits set by blood flow. The low end stands for slow turnover, the high end for rapid turnover.

Take `C/C(=N\NC(=N)N)c1ccc(Nc2nc(-c3ccc(C)cc3)cs2)cc1`: the MIC in the series with Escherichia coli came out at 16 µg/mL (≈ 43.9 µM); in the series on Enterococcus faecium, 2 µg/mL (≈ 5.49 µM); in the series with Streptococcus pneumoniae [3], 2 µg/mL (≈ 5.49 µM); in the series on Staphylococcus aureus, 2 µg/mL (≈ 5.49 µM); in the series on Enterococcus faecalis, 2 µg/mL (≈ 5.49 µM). Further, the Ratio (in the series with Streptococcus pneumoniae [1]; in the series with Listeria monocytogenes; in series [2]) was 1 throughout. Besides, the MBC came to 4 µg/mL (≈ 11 µM) in the series with Enterococcus faecium, 4 µg/mL (≈ 11 µM) with Streptococcus pneumoniae [3], 2 µg/mL (≈ 5.49 µM) against Staphylococcus aureus and 4 µg/mL (≈ 11 µM) in the series on Enterococcus faecalis. In addition, the selectivity ratio in [4] stood at 16. Moreover, the microsomal CLint at 1 h, 0.1 µM in “in vitro” turned out to be 58.9 µL/min/mg.
